# Reference: patent publication US11780839B2, “Compounds for treating Huntington's disease” (PTC THERAPEUTICS, INC., priority 2018, dated 2023)
# Tested on: Endogenous Huntingtin Protein
# Test: Endogenous Huntingtin Protein Assay (ELISA-based Meso Scale Discovery electrochemiluminescence)
# Format: cell-based
# Settings: MSD electrochemiluminescence, Table 1
# Method in brief: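 Huntingtin was captured overnight at 4 °C on plates coated with 1 μg/mL MW1 (polyQ-expanded) or MAB2166 antibody and BSA-blocked. Detection used a rabbit monoclonal and then a SULFO-TAG goat anti-rabbit antibody (0.25 μg/mL, 1 h each, room temperature). Signal was read by electrochemiluminescence.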
row,Compound,IC50
1,"CN1CCC(Nc2ncc(-c3ccc(-c4cn[nH]c4)cc3O)nn2)CC1 [Cpd 52, 2-{3-[(1-methylpiperidin-4-yl)amino]-1,2,4-triazin-6-yl}-5-(1H-pyrazol-4-yl)phenol]",100 to 500 nM
2,"CN(c1ncc(-c2ccc(-c3ccnc(Cl)n3)cc2O)nn1)C1CC(C)(C)NC(C)(C)C1 [Cpd 130, 5-(2-chloropyrimidin-4-yl)-2-{3-[methyl(2,2,6,6-tetramethylpiperidin-4-yl)amino]-1,2,4-triazin-6-yl}phenol]",100 to 500 nM
3,"CNC1CCN(c2ncc(-c3ccc(-c4ncco4)cc3O)nn2)C1 (stereo not drawn) [Cpd 358, 2-{3-[3-(methylamino)pyrrolidin-l-yl]-1,2,4-triazin-6-yl}-5-(1,3-oxazol-2-yl)phenol]",100 to 500 nM
4,"CN(c1cnc(-c2ccc(-c3ccncn3)cc2O)nn1)C1CC(C)(C)NC(C)(C)C1 [Cpd 411, 2-{6-[methyl(2,2,6,6-tetramethylpiperidin-4-yl)amino]-1,2,4-triazin-3-yl}-5-(pyrimidin-4-yl)phenol]",≤ 100 nM
5,"CC1(C)C[C@H](Nc2ncc(-c3ccc(-c4cn[nH]c4)cc3O)nn2)[C@H](O)C(C)(C)N1 [Cpd 298, (3S,4S)-4-({6-[2-hydroxy-4-(1H-pyrazol-4-yl)phenyl]-1,2,4-triazin-3-yl}amino)-2,2,6,6-tetramethylpiperidin-3-ol]",1000 to 3000 nM
6,"CN(c1ncc(-c2ccc(-c3cn[nH]c3)cc2O)nn1)C1CCCNC1 (stereo not drawn) [Cpd 20, 2-{3-[methyl(piperidin-3-yl)amino]-1,2,4-triazin-6-yl}-5-(1H-pyrazol-4-yl)phenol]",> 500 nM
7,"CC(C)(C)NC1CCN(c2ncc(-c3ccc(-c4c[nH]nc4Cl)cc3O)nn2)C1 (stereo not drawn) [Cpd 365, 2-{3-[3-(tert-butylamino)pyrrolidin-l-yl]-1,2,4-triazin-6-yl}-5-(3-chloro-1H-pyrazol-4-yl)phenol]",≤ 100 nM
8,"CN(c1ncc(-c2ccc(-c3ccc4nnnn4n3)cc2O)nn1)C1CC(C)(C)NC(C)(C)C1 [Cpd 178, 2-{3-[methyl(2,2,6,6-tetramethylpiperidin-4-yl)amino]-1,2,4-triazin-6-yl}-5-(tetrazolo[1,5-b]pyridazin-6-yl)phenol]",≤ 100 nM
9,"Cn1cc(-c2ccc(-c3cnc(N4CC[C@H](NC5CCC5)C4)nn3)c(O)c2)cn1 [Cpd 407, 2-{3-[(3S)-3-(cyclobutylamino)pyrrolidin-1-yl]-1,2,4-triazin-6-yl}-5-(1-methyl-1H-pyrazol-4-yl)phenol]",≤ 100 nM
10,"CN(c1ncc(-c2ccc(-c3cc4ncn(C)c4c(F)c3F)cc2O)nn1)C1CC(C)(C)NC(C)(C)C1 [Cpd 302, 5-(6,7-difluoro-1-methyl-1H-benzimidazol-5-yl)-2-{3-[methyl(2,2,6,6-tetramethylpiperidin-4-yl)amino]-1,2,4-triazin-6-yl}phenol]",> 500 nM
11,"CN(c1ncc(-c2ccc(-c3cnn(C4CC4)c3)cc2O)nn1)C1CC(C)(C)NC(C)(C)C1 [Cpd 101, 5-(1-cyclopropyl-1H-pyrazol-4-yl)-2-{3-[methyl(2,2,6,6-tetramethylpiperidin-4-yl)amino]-1,2,4-triazin-6-yl}phenol]",100 to 500 nM
12,"Oc1cc(-c2cn[nH]c2)ccc1-c1cnc(N2CC3CCNC3C2)nn1 (stereo not drawn) [Cpd 370, 2-[3-(hexahydropyrrolo[3,4-b]pyrrol-5(1H)-yl)-1,2,4-triazin-6-yl]-5-(1H-pyrazol-4-yl)phenol]",≤ 100 nM
13,CN1CCC2(CCN(c3ncc(-c4ccc(-c5cn[nH]c5)cc4O)nn3)CC2)C1 [Cpd 183],100 to 500 nM
14,"CNC1CCN(c2ncc(-c3ccc(-n4ccnc4)cc3O)nn2)C1 (stereo not drawn) [Cpd 220, 5-(1H-imidazol-1-yl)-2-{3-[3-(methylamino)pyrrolidin-1-yl]-1,2,4-triazin-6-yl}phenol]",> 500 nM
15,"CN(c1ncc(-c2ccc(-c3ncnc(O)n3)cc2O)nn1)C1CC(C)(C)NC(C)(C)C1 [Cpd 33, 4-(3-hydroxy-4-{3-[methyl(2,2,6,6-tetramethylpiperidin-4-yl)amino]-1,2,4-triazin-6-yl}phenyl)-1,3,5-triazin-2-ol]",1000 to 3000 nM
16,"Cc1cc(-c2ccc(-c3cnc(N(C)C4CC(C)(C)NC(C)(C)C4)nn3)c(O)c2)nn2ccnc12 [Cpd 303, 5-(8-methylimidazo[1,2-b]pyridazin-6-yl)-2-{3-[methyl(2,2,6,6-tetramethylpiperidin-4-yl)amino]-1,2,4-triazin-6-yl}phenol]",≤ 100 nM
17,"Cc1cn2nc(-c3ccc(-c4cnc(N(C)C5CC(C)(C)NC(C)(C)C5)nn4)c(O)c3)cc(C)c2n1 [Cpd 141, 5-(2,8-dimethylimidazo[1,2-b]pyridazin-6-yl)-2-{3-[methyl(2,2,6,6-tetramethylpiperidin-4-yl)amino]-1,2,4-triazin-6-yl}phenol]",≤ 100 nM
18,"CN(c1ncc(-c2ccc(-c3ccc4c(cnn4C)n3)cc2O)nn1)C1CC(C)(C)NC(C)(C)C1 [Cpd 198, 5-(1-methyl-1H-pyrazolo[4,3-b]pyridin-5-yl)-2-{3-[methyl(2,2,6,6-tetramethylpiperidin-4-yl)amino]-1,2,4-triazin-6-yl}phenol]",≤ 100 nM

row,Compound,IC50
1,"Cc1cn(-c2ccc(-c3cnc(N4CCC(NC(C)C)C4)nn3)c(O)c2)cn1 (stereo not drawn) [Cpd 326, 5-(4-methyl-1H-imidazol-1-yl)-2-(3-{3-[(propan-2-yl)amino]pyrrolidin-1-yl}-1,2,4-triazin-6-yl)phenol]",≤ 100 nM
2,"CN(c1ncc(-c2ccc(-c3cc4nc[nH]c4c(F)c3F)cc2O)nn1)C1CC(C)(C)NC(C)(C)C1 [Cpd 301, 5-(6,7-difluoro-1H-benzimidazol-5-yl)-2-{3-[methyl(2,2,6,6-tetramethylpiperidin-4-yl)amino]-1,2,4-triazin-6-yl}phenol]",≤ 100 nM
3,"COc1cc(-c2ccc(-c3cnc(N4CC5(CCN(C)CC5)C4)nn3)c(O)c2)ncn1 [Cpd 243, 5-(6-methoxypyrimidin-4-yl)-2-[3-(7-methyl-2,7-diazaspiro[3.5]nonan-2-yl)-1,2,4-triazin-6-yl]phenol]",≤ 100 nM
4,"CN(c1ncc(-c2ccc(-c3cc[nH]n3)cc2O)nn1)C1CC(C)(C)NC(C)(C)C1 [Cpd 111, 2-{3-[methyl(2,2,6,6-tetramethylpiperidin-4-yl)amino]-1,2,4-triazin-6-yl}-5-(1H-pyrazol-3-yl)phenol]",≤ 100 nM
5,"2-(3-{[(3S,4S)-3-fluoro-2,2,6,6-tetramethylpiperidin-4-yl]amino}-1,2,4-triazin-6-yl)-5-(1H-imidazol-1-yl)phenol [Cpd 238]",≤ 100 nM
6,"OCCCNC1CCN(c2ncc(-c3ccc(-c4cn[nH]c4)cc3O)nn2)C1 (stereo not drawn) [Cpd 371, 2-(3-{3-[(3-hydroxypropyl)amino]pyrrolidin-1-yl}-1,2,4-triazin-6-yl)-5-(1H-pyrazol-4-yl)phenol]",≤ 100 nM
7,"Oc1cc(-c2cn[nH]c2)ccc1-c1cnc(N2CCC(CNC3CCOCC3F)C2)nn1 (stereo not drawn) [Cpd 403, 2-[3-(3-{[(3-fluorooxan-4-yl)amino]methyl}pyrrolidin-1-yl)-1,2,4-triazin-6-yl]-5-(1H-pyrazol-4-yl)phenol]",≤ 100 nM
8,"Cn1cc(-c2ccc(-c3cnc(N4CC[C@@H](NC5CCC5)C4)nn3)c(O)c2)cn1 [Cpd 406, 2-{3-[(3R)-3-(cyclobutylamino)pyrrolidin-1-yl]-1,2,4-triazin-6-yl}-5-(1-methyl-1H-pyrazol-4-yl)phenol]",≤ 100 nM
9,"CN1CC[C@H]2CN(c3ncc(-c4ccc(-c5c[nH]nc5F)cc4O)nn3)CC[C@H]21 [Cpd 153, 5-(3-fluoro-1H-pyrazol-4-yl)-2-{3-[(3aS,7aR)-1-methyloctahydro-5H-pyrrolo[3,2-c]pyridin-5-yl]-1,2,4-triazin-6-yl}phenol]",100 to 500 nM
10,"CN1CCC2(CC1)CN(c1ncc(-c3ccc(-c4cnn(C)c4)cc3O)nn1)C2 [Cpd 226, 2-[3-(7-methyl-2,7-diazaspiro[3.5]nonan-2-yl)-1,2,4-triazin-6-yl]-5-(1-methyl-1H-pyrazol-4-yl)phenol]",≤ 100 nM
11,"Cc1cc(-c2ccc(-c3cnc(N(C)C4CC(C)(C)NC(C)(C)C4)nn3)c(O)c2)nc(O)c1N [Cpd 168, 3-amino-6-(3-hydroxy-4-{3-[methyl(2,2,6,6-tetramethylpiperidin-4-yl)amino]-1,2,4-triazin-6-yl}phenyl)-4-methylpyridin-2-ol]",100 to 500 nM
12,"Cc1cc(-c2ccc(-c3cnc(N(C)C4CC(C)(C)NC(C)(C)C4)nn3)c(O)c2)ccn1 [Cpd 9, 5-(2-methylpyridin-4-yl)-2-{3-[methyl(2,2,6,6-tetramethylpiperidin-4-yl)amino]-1,2,4-triazin-6-yl}phenol]",≤ 100 nM
13,"Cn1cnc(-c2ccc(-c3cnc(N4CCC(NC(C)(C)C)C4)nn3)c(O)c2)cc1=O (stereo not drawn) [Cpd 216, 6-(4-{3-[3-(tert-butylamino)pyrrolidin-1-yl]-1,2,4-triazin-6-yl}-3-hydroxyphenyl)-3-methylpyrimidin-4(3H)-one]",100 to 500 nM
14,"CNC1CCN(c2ncc(-c3ccc(-c4ccn(C)n4)cc3O)nn2)C1 (stereo not drawn) [Cpd 296, 2-{3-[3-(methylamino)pyrrolidin-1-yl]-1,2,4-triazin-6-yl}-5-(1-methyl-1H-pyrazol-3-yl)phenol]",1000 to 3000 nM
15,"Oc1cc(-c2cn[nH]c2)ccc1-c1cnc(N2CCC3(CCNC3)CC2)nn1 [Cpd 181, 2-[3-(2,8-diazaspiro[4.5]decan-8-yl)-1,2,4-triazin-6-yl]-5-(1H-pyrazol-4-yl)phenol]",> 500 nM
16,"Oc1cc(-c2cn[nH]c2)ccc1-c1cnc(N2CC[C@@H](NC3CCC3)C2)nn1 [Cpd 399, 2-{3-[(3R)-3-(cyclobutylamino)pyrrolidin-1-yl]-1,2,4-triazin-6-yl}-5-(1H-pyrazol-4-yl)phenol]",≤ 100 nM
17,"Oc1cc(-c2cn[nH]c2)ccc1-c1cnc(N[C@H]2CCNC[C@H]2F)nn1 [Cpd 345, 2-(3-{[(3R,4S)-3-fluoropiperidin-4-yl]amino}-1,2,4-triazin-6-yl)-5-(1H-pyrazol-4-yl)phenol]",100 to 500 nM
18,"CN(c1ncc(-c2ccc(-c3ncccn3)cc2O)nn1)C1CC(C)(C)NC(C)(C)C1 [Cpd 85, 2-{3-[methyl(2,2,6,6-tetramethylpiperidin-4-yl)amino]-1,2,4-triazin-6-yl}-5-(pyrimidin-2-yl)phenol]",≤ 100 nM
